In US20240166643A1, “IMIDAZO[1,2-A]PYRIDINE COMPOUNDS AND THEIR USE IN THERAPY” (Imperial College Innovations Limited, priority 2020, published 2024):
Where two headings read alike, the source gives them in different places.

What was measured:
[1] = in vitro; conditions: male, Sprague-Dawley, rat, pooled cryopreserved rat hepatocytes, pH 7.4
[2] = system: Plasmodium falciparum 3D7; assay: SYBR Green assay, Plasmodium falciparum strain 3D7; format: cell-based; conditions: P. falciparum strain 3D7, 96 h incubation, read-out: Pf EC50 strain 3D7
[3] = target: Plasmodium vivax (Pv) NMT (Plasmodium vivax (strain Salvador I), UniProt A5K1A2); assay: biochemical
Sequence of Plasmodium vivax (Pv) NMT (A5K1A2 1-410): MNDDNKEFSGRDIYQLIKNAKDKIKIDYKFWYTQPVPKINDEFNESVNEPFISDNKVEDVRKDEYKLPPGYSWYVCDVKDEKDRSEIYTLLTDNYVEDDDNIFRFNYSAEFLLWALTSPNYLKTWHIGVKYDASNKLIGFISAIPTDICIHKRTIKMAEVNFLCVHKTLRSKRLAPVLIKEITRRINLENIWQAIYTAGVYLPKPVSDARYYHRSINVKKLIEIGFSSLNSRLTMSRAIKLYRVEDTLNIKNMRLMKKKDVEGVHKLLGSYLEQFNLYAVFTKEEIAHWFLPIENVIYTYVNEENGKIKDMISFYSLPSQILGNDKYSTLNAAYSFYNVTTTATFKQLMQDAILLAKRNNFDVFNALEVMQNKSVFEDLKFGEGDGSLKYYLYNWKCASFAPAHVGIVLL

[4] = target: Human NMT1 (HsNMT1) (Homo sapiens, UniProt P30419); assay: biochemical
Sequence of Human NMT1 (HsNMT1) (P30419 whole entry, looked up): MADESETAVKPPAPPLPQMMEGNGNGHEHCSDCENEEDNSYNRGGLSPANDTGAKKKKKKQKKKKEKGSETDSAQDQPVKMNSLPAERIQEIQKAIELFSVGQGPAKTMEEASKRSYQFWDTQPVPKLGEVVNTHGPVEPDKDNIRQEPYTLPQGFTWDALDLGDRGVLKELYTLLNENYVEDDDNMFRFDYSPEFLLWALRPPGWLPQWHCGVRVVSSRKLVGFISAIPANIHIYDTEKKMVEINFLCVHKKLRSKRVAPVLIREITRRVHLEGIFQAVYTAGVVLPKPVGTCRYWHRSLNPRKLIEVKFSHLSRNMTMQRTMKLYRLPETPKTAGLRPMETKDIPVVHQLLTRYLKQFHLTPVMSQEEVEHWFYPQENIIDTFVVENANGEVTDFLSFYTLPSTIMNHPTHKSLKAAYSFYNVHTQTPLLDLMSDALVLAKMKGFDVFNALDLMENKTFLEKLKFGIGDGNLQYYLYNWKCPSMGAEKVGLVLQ

[5] = system: SU-DHL-10 cells; assay: Cell cytotoxicity in SU-DHL-10 cell line (CellTiter-Glo); format: cell-based; conditions: Homo sapiens, read-out: SU-DHL-10 EC50
Experimental: Assay (c): Cell Cytotoxicity in SU-DHL-10 Cell Line
Cell Culture: SU-DHL-10 (ATCC CRL-2963) were cultured in RPMI-media (ATCC, 30-2001).
Cultures were maintained by the addition of fresh medium and inoculum of 8.0×10^4 to 2.0×10^5 cells/mL. Subculturing was done when the cell density was between 1.0×10^6 and 2.0×10^6 cells/mL.
Cell seeding: 5000 cells/well were plated in 384-white clear bottom plates (Greiner, 781098) for the assay in 20 μl growth media.
Top dose: 1 mM stocks of each compound was prepared in 100% DMSO and thereafter diluted 333.33 fold in growth media to obtain 3 μM (0.3% DMSO) mid stock of each compound, from which 10 μl was added to assay wells (with 20 μl cells) for a final concentration of 1 μM (0.1% DMSO). For subsequent dose-response: 1 mM stock was diluted 3 fold in DMSO before subjecting to above dilution pattern to obtain final 0.1% DMSO concentration.
Treatment: Cells were incubated with the compounds for 48 h at 37° C. in presence of 5% CO2.
Assay Procedure: The assay plate and its contents were equilibrated at room temperature for approximately 30 minutes. CellTiter-Glo® Reagent was added equal to the volume (1;1) of cell culture medium present in each well. The contents were mixed for 5 minutes on an orbital shaker to induce cell lysis. The plate was allowed to incubate at room temperature for 10 minutes to stabilize luminescent signal. The luminescence was recorded with an integration time of 0.25 seconds in EnVision 2104 Multilabel Plate Reader (Perkin Elmer).
Calculation: % Cytotoxicity was calculated considering 100% cell death in wells treated with 0.1% TritonX.

Row | IC50 [4] [nM] | Compound | half-life at 1 µM [1] [min] | EC50 [2] [nM] | IC50 [3] [nM] | EC50 ([5]; SU-DHL10, CellTiter-Glo, 48 h) [nM] | EC50 ([5]; SU-DHL10, 48 h) [nM]
1 | 15 | C[C@@H]1CNCCN1c1ncc(Cl)c(N2CC(C(=O)N(C)C(C)(C)c3cnc4ccccn34)C2)n1 [Example 138, (R)-1-(5-chloro-2-(2-methylpiperazin-1-yl)pyrimidin-4-yl)-N-(2-(Imidazo[1,2-a]pyridin-3-yl)propan-2-yl)-N-methylazetidine-3-carboxamide] | – | – | – | 742 | –
2 | 5 | CC[C@H]1CNCCN1c1ncc(Cl)c(N2CC(C(=O)N(C)C(C)(C)c3cnc4ccccn34)C2)n1 [Example 148, (S)-1-(5-chloro-2-(2-ethylpiperazin-1-yl)pyrimidin-4-yl)-N-(2-(Imidazo[1,2-a]pyridin-3-yl)propan-2-yl)-N-methylazetidine-3-carboxamide] | – | – | – | 369 | –
3 | 3 | CCN(C(=O)C1CN(c2nc(N3CCNC[C@@H]3C)ncc2Cl)C1)C(C)(C)c1cnc2ccccn12 [Example 145, (S)-1-(5-chloro-2-(2-methylpiperazin-1-yl)pyrimidin-4-yl)-N-ethyl-N-(2-(imidazo[1,2-a]pyridin-3-yl)propan-2-yl)azetidine-3-carboxamide] | – | – | – | 13 | –
4 | 4 | CN1CCCN(c2nc(N3CC(C(=O)N(C)C(C)(C)c4cnc5ccccn45)C3)c3sccc3n2)CC1 [Example 122, N-(2-(imidazo[1,2-a]pyridin-3-yl)propan-2-yl)-N-methyl-1-(2-(4-methyl-1,4-diazepan-1-yl)thieno[3,2-d]pyrimidin-4-yl)azetidine-3-carboxamide] | – | – | – | 50 | –
5 | 2 | C[C@H]1CN(c2ncc(Cl)c(N3CC(C(=O)NC(C)(C)c4cnc5ccccn45)C3)n2)[C@@H](C)CN1 [Example 151, 1-(5-chloro-2-((2S,5S)-2,5-dimethylpiperazin-1-yl)pyrimidin-4-yl)-N-(2-(imidazo[1,2-a]pyridin-3-yl)propan-2-yl)azetidine-3-carboxamide] | – | – | – | 15 | –
6 | 5 | C[C@H]1CNCCN1c1nc(N2CC(C(=O)NC(C)(C)c3cnc4ccccn34)C2)c2sccc2n1 [Example 126, (S)—N-(2-(Imidazo[1,2-a]pyridin-3-yl)propan-2-yl)-1-(2-(2-methylpiperazin-1-yl)thieno[3,2-d]pyrimidin-4-yl)azetidine-3-carboxamide] | – | – | – | 265 | –
7 | 3 | CCC1CN(c2ncc(Cl)c(N3CC(C(=O)NC(C)(C)c4cnc5ccccn45)C3)n2)CCN1 (centres unmarked) [Example 137, 1-(5-chloro-2-(3-ethylpiperazin-1-yl)pyrimidin-4-yl)-N-(2-(imidazo[1,2-a]pyridin-3-yl)propan-2-yl)azetidine-3-carboxamide] | – | – | – | 218 | –
8 | 61 | CN(C(=O)C1CN(c2nc(N3CCNC4CC43)ncc2Cl)C1)C(C)(C)c1cnc2ccccn12 (centres unmarked) [Example 146, 1-(2-(2,5-diazabicyclo[4.1.0]heptan-2-yl)-5-chloropyrimidin-4-yl)-N-(2-(imidazo[1,2-a]pyridin-3-yl)propan-2-yl)-N-methylazetidine-3-carboxamide] | – | – | – | 597 | –
9 | 27 | C[C@H]1CNCCN1c1ncc(C(F)(F)F)c(N2CC(C(=O)N(C)C(C)(C)c3cnc4ccccn34)C2)n1 [Example 135, (S)—N-(2-(imidazo[1,2-a]pyridin-3-yl)propan-2-yl)-N-methyl-1-(2-(2-methylpiperazin-1-yl)-5-(trifluoromethyl)pyrimidin-4-yl)azetidine-3-carboxamide] | – | – | – | 767 | –

The remaining lines, values behind:

Row | Compound | IC50 [4] [nM] | half-life at 1 µM [1] [min] | EC50 [2] [nM] | IC50 [3] [nM] | EC50 ([5]; SU-DHL10, CellTiter-Glo, 48 h) [nM] | EC50 ([5]; SU-DHL10, 48 h) [nM]
10 | CC1CN(c2ncc(F)c(N3CC(C(=O)NC(C)(C)c4cnc5ccccn45)C3)n2)C[C@H](C)N1C (stereo partly drawn) [Example 96, 1-{5-fluoro-2-[(3S,5S)S-3,4,5-trimethylpiperazin-1-yl]pyrimidin-4-yl}-N-(2-{imidazo[1,2-a]pyridin-3-yl}propan-2-yl)azetidine-3-carboxamide] | 31 | > 180 | > 910 | 130 | – | –
11 | C[C@@H]1CN(c2ncc(F)c(N3CC(C(=O)NC(C)(C)c4cnc5ccccn45)C3)n2)C[C@H](C)N1 [Example 44] | 120 | > 180 | 540 | 32 | – | –
12 | CC(C)(NC(=O)C1CN(c2nc(N3CCNCC3)ncc2Cl)C1)c1cnc2ccccn12 [Example 33] | 3.5 | – | 18 | 6.6 | 878 | –
13 | C[C@@H]1CN(c2ncc(Cl)c(N3CC(C(=O)NC(C)(C)c4cnc5ccccn45)C3)n2)C[C@H](C)N1 [Example 43] | – | > 180 | 110 | – | – | –
14 | COc1cnc(N2C[C@@H](C)N(C)[C@@H](C)C2)nc1N1CC(C(=O)NC(C)(C)c2cnc3ccccn23)C1 [Example 88, N-(2-{imidazo[1,2-a]pyridin-3-yl}propan-2-yl)-1-{5-methoxy-2-[(3R,5S)-3,4,5-trimethylpiperazin-1-yl]pyrimidin-4-yl}azetidine-3-carboxamide] | – | > 180 | 76 | – | – | –
15 | CC1CNCCN1c1ncc(Cl)c(N2CC(C(=O)N(C)C(C)(C)c3cnc4ccccn34)C2)n1 (centres unmarked) [Example 50] | – | – | 26 | – | 35 | –
16 | Cc1cnc(N2CCN(C)CC2)nc1N1CC(C(=O)NC(C)(C)c2cnc3ccccn23)C1 [Example 66] | – | > 180 | 320 | 29 | – | –
17 | CN1CCN(c2ncc(F)c(N3CC(C(=O)NC(C)(C)c4cnc5c(F)cccn45)C3)n2)CC1 [Example 61] | – | > 180 | 260 | 13 | – | –
18 | CN1CCN(c2ncc(Cl)c(N3CCC(C(=O)NC(C)(C)c4cnc5ccccn45)CC3)n2)CC1 [Example 77] | – | 89.6 | > 1000 | 74 | – | –
19 | C[C@H]1CN(C)CCN1c1ncc(F)c(N2CC(C(=O)N(C)C(C)(C)c3cnc4ccccn34)C2)n1 [Example 108, 1-{2-[(2S)-2,4-dimethylpiperazin-1-yl]-5-fluoropyrimidin-4-yl}-N-(2-{imidazo[1,2-a]pyridin-3-yl}propan-2-yl)-N-methylazetidine-3-carboxamide] | – | 58 | 200 | – | – | –
20 | CN1CCN(c2ncc(F)c(N3CC(C)(C(=O)NC(C)(C)c4cnc5ccccn45)C3)n2)CC1 [Example 65] | – | 144 | > 1000 | 90 | – | –
21 | Cc1ccc2ncc(C(C)(C)NC(=O)C3CN(c4nc(N5CCN(C)CC5)ncc4F)C3)n2c1 [Example 60] | – | 144 | 240 | 110 | – | –
22 | CN1CCN(c2cc(N3CC(C(=O)NC(C)(C)c4cnc5ccccn45)C3)c(F)cn2)CC1 [Example 4, 1-[5-fluoro-2-(4-methylpiperazin-1-yl)pyridin-4-yl]-N-(2-{imidazo[1,2-a]pyridin-3-yl}propan-2-yl)azetidine-3-carboxamide] | – | > 180 | 100 | – | – | –
23 | CC1CN(c2ncc(Cl)c(N3CC(C(=O)NC(C)(C)c4cnc5ccccn45)C3)n2)C[C@H](C)N1 (some centres unmarked) [Example 48] | – | – | 65 | – | 795 | –
24 | Cc1ccc2ncc(C(C)(C)NC(=O)C3CN(c4nc(N5CCN(C)CC5)ncc4Cl)C3)n2c1 [Example 67] | – | > 180 | 120 | 5.6 | – | –
25 | Cc1cc2nc(N3CCCN(C)CC3)nc(N3CC(C(=O)NC(C)(C)c4cnc5ccccn45)C3)c2s1 [Example 116, N-(2-(imidazo[1,2-a]pyridin-3-yl)propan-2-yl)-1-(6-methyl-2-(4-methyl-1,4-diazepan-1-yl)thieno[3,2-d]pyrimidin-4-yl)azetidine-3-carboxamide] | 6 | – | – | – | – | 74
26 | C[C@@H]1CN(c2ncc(Cl)c(N3CC(C(=O)NC(C)(C)c4cnc5ccccn45)C3)n2)CCN1 [Example 1, 1-{5-chloro-2-[(3R)-3-methylpiperazin-1-y]pyrimidin-4-yl}-N-(2-{imidazo[1,2-a]pyridin-3-yl}propan-2-yl)azetidine-3-carboxamide] | 3 | – | 6.3 | 6.6 | 367 | –
27 | CCN1CCN(c2ncc(Cl)c(N3CC(C(=O)NC(C)(C)c4cnc5ccccn45)C3)n2)CC1 [Example 70] | – | > 180 | 410 | 8.6 | – | –
28 | CN(C(=O)C1CN(c2nc(N3CC4CCC(C3)N4)ncc2Cl)C1)C(C)(C)c1cnc2ccccn12 [Example 133, 1-(2-(3,8-diazabicyclo[3.2.1]octan-3-yl)-5-chloropyrimidin-4-yl)-N-(2-(imidazo[1,2-a]pyridin-3-yl)propan-2-yl)-N-methylazetidine-3-carboxamide] | 62 | – | – | – | 409 | –
